Earlier results, collected in patent publication US20250120404A1, “BOTANICAL PESTICIDE COMPOSITIONS” (Mosquito Squad Franchising SPE LLC, priority 2023, published 2025).

tested on: mosquitoes; conditions: average reported toxicity from literature, concentration/biomass

Question: For C=CCc1ccc(O)c(OC)c1 [Eugenol], which “Concentration of Oil Extract Necessary for Mosquito Death” value (“Concentration of Oil Extract Necessary” for short) is on record?
Answer: Varying levels

Question: For CCC(=O)OCCc1ccccc1 [2-phenethyl proprionate], which “Concentration of Oil Extract Necessary” value is on record?
Answer: Varying levels

Question: With CC(C)=CCC/C(C)=C/CO [Geraniol] as the compound, how does the “Concentration of Oil Extract Necessary” value read?
Answer: Varying levels
